Reference: patent US20250059174A1, “Pharmaceutical Compounds and Compositions as C-Kit Kinase Inhibitors” (Enanta Pharmaceuticals, Inc., priority 2023, published 2025)
pEC50, pIC50: −log10 of the molar value.

How the values were obtained:
[1] = target: Recombinant human c-KIT kinase (Homo sapiens (Human), UniProt P10721); test: c-KIT kinase chemiluminescence assay (ADP-Glo); format: biochemical; details: ATP 50 μM
Method: The c-KIT Kinase Enzyme System (V4498) and ADP-Glo™ Kinase Assay kit (V6930) were purchased from Promega (Madison, WI). DMSO (D2650) was purchased from Sigma-Aldrich (Burlington, MA).
Kinase Reaction: The kinase assay was based on the recommended protocol by c-KIT Kinase Enzyme System from Promega. Recombinant human c-KIT kinase in 3 μL of assay buffer (40 mM Tris pH 7.5, 20 mM MgCl2, 0.1 mg/mL BSA and 50 μM DTT) was added to the test or high control wells and 3 μL of assay buffer was added to the low control wells. The microplate was centrifuged at 800 rotations per minute (rpm) for 60 s and incubated at room temperature (RT) for 30 min. Next, 2 μL of buffered ATP and polyEY substrate solution was added to all wells. The microplate was centrifuged at 800 rpm for 60 s and incubated at RT for 2 h.
ADP detection with ADP-Glo™ Kinase Assay: After the kinase reaction incubation, 5 μL of ADP-Glo™ reagent was added to all wells. The microplate was centrifuged at 800 rpm for 60 s and incubated at RT for 40 min. Ten microliter (10 μL) of Kinase Detection Reagent (Luciferin-Luciferase system) was then added to all wells. The microplate was centrifuged at 800 rpm for 60 s and incubated at RT for 60 min. Kinase activity was measured as increase in luminescence at RT in an Envision plate reader equipped with 560 nm filters and operating in endpoint mode. Data Analysis: Endpoint chemiluminescence from high and low control wells were used to calculate normalized c-KIT activity at various concentrations of test compounds. The normalized activities were fitted to inhibitor-versus-normalized response fit in GraphPad Prism 7 to determine half-maximal inhibitory concentration (IC50) and hill coefficient values (H).
Where I is the inhibitor concentration and H is the Hill coefficient.

[2] = system: M-07e cells; test: M-07e cellular assay (SCF-mediated cell proliferation); format: cell-based; details: Homo sapiens, 72 hours, CellTiter Glo
Method: M-07e cells (Creative Bioarray, CSC-C0249) which endogenously express human c-KIT were used to evaluate the effect of compounds on stem cell factor (SCF)-mediated cell proliferation. M-07e cells were cultured in growth media (RPMI+10% FBS+1% penicillin/streptomycin+10 ng/mL GM-CSF) at 5E5-1.5E6 cells/mL, replenishing media every 3-4 days. 1.5E4 cells were seeded per well in 384 well tissue culture treated plates in 20 μL assay media (RPMI+[…]+1% penicillin/streptomycin) without growth factor stimulation and incubated at 37° C. in a CO2 humidity-controlled incubator. Twenty-four hours later, three-fold serially diluted test compounds in media containing SCF (at the previously determined EC90) were added to the plated M-07e cells and incubated for an additional 72 hours. Cell viability was determined by adding 25 μL CellTiter Glo (Promega) to the cells and the luminescence was measured using a Perkin Elmer Envision plate reader. The EC50 was determined using GraphPad Prism. Percent cell growth was determined after normalizing the curve to the mean RLU high control (no compound control wells) at 100% and the mean RLU low control (no SCF control wells) at 0%.

Sequence of Recombinant human c-KIT kinase (P10721 26-976): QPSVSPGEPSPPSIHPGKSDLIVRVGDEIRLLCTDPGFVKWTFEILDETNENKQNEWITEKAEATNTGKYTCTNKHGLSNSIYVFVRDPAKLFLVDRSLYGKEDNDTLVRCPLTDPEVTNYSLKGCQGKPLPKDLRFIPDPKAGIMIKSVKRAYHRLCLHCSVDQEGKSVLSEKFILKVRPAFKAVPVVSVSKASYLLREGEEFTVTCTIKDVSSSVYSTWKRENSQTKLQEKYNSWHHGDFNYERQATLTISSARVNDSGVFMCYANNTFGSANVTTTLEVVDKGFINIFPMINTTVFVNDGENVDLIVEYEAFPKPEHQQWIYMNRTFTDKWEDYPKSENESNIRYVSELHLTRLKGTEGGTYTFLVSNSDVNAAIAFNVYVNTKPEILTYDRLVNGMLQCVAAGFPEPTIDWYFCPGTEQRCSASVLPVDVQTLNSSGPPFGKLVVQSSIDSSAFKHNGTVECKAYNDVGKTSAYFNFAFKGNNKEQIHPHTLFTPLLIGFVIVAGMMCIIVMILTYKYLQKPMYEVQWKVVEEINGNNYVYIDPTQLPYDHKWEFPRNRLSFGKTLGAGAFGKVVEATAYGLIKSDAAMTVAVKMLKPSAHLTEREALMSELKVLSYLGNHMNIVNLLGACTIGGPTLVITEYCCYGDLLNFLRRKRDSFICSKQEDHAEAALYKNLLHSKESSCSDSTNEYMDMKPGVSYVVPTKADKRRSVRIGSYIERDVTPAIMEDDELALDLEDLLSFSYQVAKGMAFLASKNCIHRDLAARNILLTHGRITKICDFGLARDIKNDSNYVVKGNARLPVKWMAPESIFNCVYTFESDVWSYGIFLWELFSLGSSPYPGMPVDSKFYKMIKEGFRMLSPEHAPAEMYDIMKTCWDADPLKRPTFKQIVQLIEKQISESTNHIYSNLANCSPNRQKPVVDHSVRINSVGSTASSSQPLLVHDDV

Row | pIC50 [1] | Structure (SMILES) | pEC50 [2]
1 | 6.00 to 7.00 | Cc1ccc(-c2noc(C34COC(C)(C3)C4)n2)cc1NC(=O)c1cnn2ccc(N3CC4(COC4)C3)cc12 [Example 281-6] | > 7.00
2 | > 7.00 | Cc1ccc(-c2ncc(C3CC3)cn2)cc1NC(=O)c1cnn2cc(-c3cn(C(F)F)nn3)ccc12 [Example 132-13] | > 7.00
3 | < 6.00 | Cc1ccc(-c2noc(C3CN(C(=O)N4CC(F)(F)C4)C3)n2)cc1NC(=O)c1cnn2ccc(N3CC4(COC4)C3)cc12 [Example 281-61] | 6.00 to 7.00
4 | 6.00 to 7.00 | Cc1ccc(-c2noc([C@H]3C[C@@H]3F)n2)cc1NC(=O)c1cnn2ccc(N3CC[C@H](NC(=O)OC(C)(C)C)C3)cc12 [Example 193] | 6.00 to 7.00
5 | < 6.00 | CC(=O)N1CC2(CC(c3nc(-c4cnc(C)c(NC(=O)c5cnn6ccc(N7CC8(C7)CC(O)(C(F)F)C8)cc56)c4)no3)C2)C1 [Example 281-73] | < 6.00
6 | 6.00 to 7.00 | Cc1ccc(-c2ncc(C3CC3)cn2)cc1NC(=O)c1cnn2ccc(-c3c(C)nc(N)nc3C)cc12 [Example 365] | > 7.00
7 |  | Cc1nc(N)nc(C)c1-c1ccn2ncc(C(=O)Nc3cc(-c4noc(C5CN(C(=O)OC(C)(C)C)C5)n4)sc3C)c2c1 [Example 369] | < 6.00
8 | 6.00 to 7.00 | CC(=O)N1CCC(c2nc(-c3cnc(C)c(NC(=O)c4cnn5ccc(N6CC7(C6)CC(O)(C(F)F)C7)cc45)c3)no2)C1 (stereo not drawn) [Example 281-55] | < 6.00
9 | > 7.00 | Cc1ccc(-c2ncc(C3CC3)cn2)cc1NC(=O)c1cnc(-c2ccc3c(c2)CC(=O)N3)o1 [Example 363] | > 7.00
10 | > 7.00 | Cc1cc(F)c(-c2noc([C@H]3C[C@@H](OC(F)(F)F)C3)n2)cc1NC(=O)c1cnn2ccc(N3CC4(COC4)C3)cc12 [Example 281-57] | 6.00 to 7.00
11 | > 7.00 | Cc1ccc(-c2noc([C@H]3C[C@@H](OC(F)(F)F)C3)n2)cc1NC(=O)c1cnn2ccc(N3CC4(CNC4)C3)cc12 [Example 260] | 6.00 to 7.00
12 | 6.00 to 7.00 | Cc1ccc(-c2noc([C@H]3C[C@@H]3F)n2)cc1NC(=O)c1cnn2cc(F)c(Br)cc12 [Example 62] | < 6.00
13 | > 7.00 | Cc1ccc(-c2noc([C@H]3C[C@@H](C(F)(F)F)C3)n2)cc1NC(=O)c1cnn2ccc(N3CC4(COC4)C3)cc12 [Example 281-25] | > 7.00
14 | > 7.00 | Cc1ccc(-c2cnc(C3CC3)nc2)cc1NC(=O)c1cnn2ccc(N3CC4(C3)CC(O)(C(F)F)C4)cc12 [Example 353] | > 7.00
15 | > 7.00 | Cc1ccc(-c2cnc(N3CC(O)(C(F)(F)F)C3)nc2)cc1NC(=O)c1cnn2ccc(N3CC4(COC4)C3)cc12 [Example 354] | > 7.00
16 | > 7.00 | Cc1ccc(-c2noc(N3CC(O)(C(F)(F)F)C3)n2)cc1NC(=O)c1cnn2ccc(N3CC4(C3)CC(O)(C(F)F)C4)cc12 [Example 281-99] | > 7.00
17 | > 7.00 | Cc1ccc(-c2noc([C@H]3C[C@@H]3F)n2)cc1NC(=O)c1cnc(-c2ccc3cn[nH]c3c2)o1 [Example 294] | 6.00 to 7.00
18 | 6.00 to 7.00 | Cc1ccc(-c2noc([C@H]3C[C@@H]3F)n2)cc1NC(=O)c1cnc(-c2ccc(N3CC4(COC4)C3)cc2)o1 [Example 297] | 6.00 to 7.00
19 | > 7.00 | [2H]C([2H])([2H])c1ccc(-c2noc([C@H]3C[C@@H]3F)n2)cc1NC(=O)c1cnn2ccc(N3CC4(COC4)C3)cc12 [Example 281-3] | > 7.00
20 | > 7.00 | Cc1ccc(-c2noc([C@H]3C[C@@H]3F)n2)cc1NC(=O)c1cnn2ccc(N3CC4(CC(=O)C4)C3)cc12 [Example 231] | > 7.00
21 | < 6.00 | Cc1ccc(-c2noc(C3CN(C(=O)N(C)C)C3)n2)cc1NC(=O)c1cnn2ccc(N3CC4(COC4)C3)cc12 [Example 281-51] | < 6.00
22 | 6.00 to 7.00 | Cc1ccc(-c2noc([C@H]3C[C@@H]3F)n2)cc1NC(=O)c1cnn2ccc(N3CC[C@@H](NC(=O)OC(C)(C)C)C3)cc12 [Example 192] | 6.00 to 7.00

Row | pIC50 [1] | Structure (SMILES) | pEC50 [2]
23 | 6.00 to 7.00 | Cc1ncc(-c2nnn(CC3CC3)n2)cc1NC(=O)c1cnn2ccc(N3CC4(C3)CC(O)(C(F)F)C4)cc12 [Example 312-7] | > 7.00
24 | > 7.00 | CC(=O)N1CCN(c2ccn3ncc(C(=O)Nc4cc(-c5noc([C@H]6C[C@@H]6F)n5)ccc4C)c3c2)CC1 [Example 241-6] | > 7.00
25 | 6.00 to 7.00 | Cc1ccc(-c2noc([C@H]3C[C@@H]3F)n2)cc1NC(=O)c1cnn2cc(-c3cn(C45CC(C4)C5)nn3)ccc12 [Example 123] | > 7.00
26 | > 7.00 | Cc1ccc(-c2noc([C@H]3C[C@@H]3F)n2)cc1NC(=O)c1cnn2ccc(Br)cc12 [Example 42, 5-bromo-N-(5-(5-((1R,2S)-2-fluorocyclopropyl)-1,2,4-oxadiazol-3-yl)-2-methylphenyl)pyrazolo[1,5-a]pyridine-3-carboxamide] | 6.00 to 7.00
27 | 6.00 to 7.00 | Cc1ccc(-c2noc([C@H]3C[C@@H]3F)n2)cc1NC(=O)c1cnc(-c2ccc(F)c3[nH]ncc23)o1 [Example 308-44] | 6.00 to 7.00
28 | 6.00 to 7.00 | CC(=O)N1CC(Oc2ccn3ncc(C(=O)Nc4cc(-c5noc([C@H]6C[C@@H]6F)n5)ccc4C)c3c2)C1 [Example 218] | 6.00 to 7.00
29 | 6.00 to 7.00 | Cc1ccc(-c2noc(C3CCN(C(=O)[C@H]4C[C@@H]4F)CC3)n2)cc1NC(=O)c1cnn2ccc(N3CC4(COC4)C3)cc12 [Example 281-93] | 6.00 to 7.00
30 | > 7.00 | CCOC(=O)c1cc2cc(-c3ncc(C(=O)Nc4cc(-c5noc([C@H]6C[C@@H]6F)n5)ccc4C)o3)ccc2[nH]1 [Example 308-26] | 6.00 to 7.00
31 | 6.00 to 7.00 | Cc1ncc(-c2noc(C3CC(F)(F)C3)n2)cc1NC(=O)c1cnn2ccc(N3CC4(C3)CC(O)(C(F)F)C4)cc12 [Example 281-69] | > 7.00
32 | 6.00 to 7.00 | Cc1ncc(-c2noc([C@H]3C[C@@H](OC(F)(F)F)C3)n2)cc1NC(=O)c1cnn2ccc(N3CC4(COC4)C3)cc12 [Example 270] | > 7.00
33 | < 6.00 | Cc1ccc(-c2noc([C@H]3C[C@@H]3F)n2)cc1NC(=O)c1cnc(N2CCC3(CCC(=O)N3)CC2)s1 [Example 98-8] | < 6.00
34 |  | Cc1ccc(-c2noc([C@H]3C[C@@H]3F)n2)cc1NC(=O)c1cnc2n1Cc1ccccc1-2 [Example 99] | > 7.00
35 |  | Cc1nn(-c2ccc(C3CC3)cc2)cc1NC(=O)c1cnn2ccc(N3CC4(COC4)C3)cc12 [Example 372] | < 6.00
36 |  | Cc1ccc(-c2noc(C3C[C@@H]3F)n2)cc1NC(=O)c1cnn2ccc(N3C[C@H](CS(C)(=O)=O)[C@@H]3C)cc12 (stereo partly drawn) [Example 172] | > 7.00
37 |  | Cc1nc(N)nc(C)c1-c1ccn2ncc(C(=O)Nc3cc(-c4noc(C5CN(C(=O)[C@H]6C[C@@H]6F)C5)n4)sc3C)c2c1 [Example 371] | < 6.00
38 |  | Cc1ccc(-c2nc([C@H]3C[C@@H]3F)cs2)cc1NC(=O)c1cnn2ccc(N3CC4(COC4)C3)cc12 [Example 309] | > 7.00
39 |  | Cc1ncc(-c2ncc(OC(F)(F)F)cn2)cc1NC(=O)c1cnn2ccc(-c3c(C)nc(N)nc3C)cc12 [Example 364] | > 7.00
40 |  | Cc1nc(N)nc(C)c1-c1ccn2ncc(C(=O)Nc3cc(-c4noc([C@H]5C[C@@H]5F)n4)sc3C)c2c1 [Example 370] | < 6.00
41 |  | Cc1ccc(-c2noc(C3C[C@@H]3F)n2)cc1NC(=O)c1cnn2ccc(-c3cnn(C(F)F)c3)cc12 (stereo partly drawn) [Example 2a] | > 7.00
42 |  | Cc1ccc(-c2noc([C@H]3C[C@@H]3F)n2)cc1NC(=O)c1cnc(-c2cnc(N)nc2)o1 [Example 308-64] | < 6.00
43 |  | Cc1ncc(-c2ccn3ncc(C(=O)Nc4cc(-c5noc([C@H]6C[C@@H]6F)n5)ccc4C)c3c2)c(C)n1 [Example 168] | > 7.00
44 |  | Cc1nc(N)nc(C)c1-c1ccn2ncc(C(=O)Nc3cc(-c4noc([C@H]5C[C@@H](OC(F)(F)F)C5)n4)sc3C)c2c1 [Example 368] | 6.00 to 7.00

Row | Structure (SMILES) | pIC50 [1] | pEC50 [2]
45 | Cc1ccc(-c2noc([C@H]3C[C@@H]3F)n2)cc1NC(=O)c1cnn2ccc(N3C4CCC3CC(O)C4)cc12 (stereo partly drawn) [Example 204] | > 7.00 | > 7.00
